Assay results reported in ChEMBL document CHEMBL1201862, “PubChem BioAssay data set” (2004).
The source made the active and inactive calls.

Tests used:
[1] = target: Trypsin (Sus scrofa, UniProt P00761); assay: porcine trypsin inhibitors, dose response, selectivity assay for Rce1 protease inhibitor project, biochemical, quenched peptide fluorescence, cherry-pick (AID 488789)
[2] = target: CAAX prenyl protease 1 (Saccharomyces cerevisiae S288c, UniProt P47154); assay: Ste24 protease inhibitors, dose response, biochemical, S. cerevisiae, plate reader, cherry-pick (AID 488815)
[3] = target: CAAX prenyl protease 2 (Homo sapiens, UniProt Q9Y256); assay: human Rce1 protease inhibitors, dose response, biochemical, yeast membranes, quenched-peptide fluorescence, cherry-pick (AID 588849)
[4] = target: CAAX prenyl protease 2 (Saccharomyces cerevisiae S288c, UniProt Q03530); type: biochemical
[5] = tested on: HEK293; assay: cells; type: functional, cell-based; conditions: Homo sapiens
[6] = target: Nucleotide-binding oligomerization domain-containing protein 2 (Homo sapiens, UniProt Q9HC29); assay: NOD2 signaling inhibitors, cell-based, luminescence, uHTS, HEK293 (AID 1566); type: functional
[7] = tested on: HEK293; assay: NOD2 signaling inhibitors in MDP-stimulated cells, cell-based, uHTS, luminescence (AID 2001); type: functional; conditions: Homo sapiens
[8] = tested on: HEK293; assay: cells; type: functional, cell-based; conditions: Homo sapiens; remark: listed apart in the source
[9] = tested on: HEK293; assay: cells; type: functional, cell-based; conditions: Homo sapiens; remark: listed apart in the source
[10] = tested on: HEK293; assay: NOD1 signaling inhibitors, primary screen, cell-based, luminescence, uHTS (AID 1578); type: functional; conditions: Homo sapiens

Nucleotide-binding oligomerization domain-containing protein 2, sequence (Q9HC29 whole entry, the tested form may be a part): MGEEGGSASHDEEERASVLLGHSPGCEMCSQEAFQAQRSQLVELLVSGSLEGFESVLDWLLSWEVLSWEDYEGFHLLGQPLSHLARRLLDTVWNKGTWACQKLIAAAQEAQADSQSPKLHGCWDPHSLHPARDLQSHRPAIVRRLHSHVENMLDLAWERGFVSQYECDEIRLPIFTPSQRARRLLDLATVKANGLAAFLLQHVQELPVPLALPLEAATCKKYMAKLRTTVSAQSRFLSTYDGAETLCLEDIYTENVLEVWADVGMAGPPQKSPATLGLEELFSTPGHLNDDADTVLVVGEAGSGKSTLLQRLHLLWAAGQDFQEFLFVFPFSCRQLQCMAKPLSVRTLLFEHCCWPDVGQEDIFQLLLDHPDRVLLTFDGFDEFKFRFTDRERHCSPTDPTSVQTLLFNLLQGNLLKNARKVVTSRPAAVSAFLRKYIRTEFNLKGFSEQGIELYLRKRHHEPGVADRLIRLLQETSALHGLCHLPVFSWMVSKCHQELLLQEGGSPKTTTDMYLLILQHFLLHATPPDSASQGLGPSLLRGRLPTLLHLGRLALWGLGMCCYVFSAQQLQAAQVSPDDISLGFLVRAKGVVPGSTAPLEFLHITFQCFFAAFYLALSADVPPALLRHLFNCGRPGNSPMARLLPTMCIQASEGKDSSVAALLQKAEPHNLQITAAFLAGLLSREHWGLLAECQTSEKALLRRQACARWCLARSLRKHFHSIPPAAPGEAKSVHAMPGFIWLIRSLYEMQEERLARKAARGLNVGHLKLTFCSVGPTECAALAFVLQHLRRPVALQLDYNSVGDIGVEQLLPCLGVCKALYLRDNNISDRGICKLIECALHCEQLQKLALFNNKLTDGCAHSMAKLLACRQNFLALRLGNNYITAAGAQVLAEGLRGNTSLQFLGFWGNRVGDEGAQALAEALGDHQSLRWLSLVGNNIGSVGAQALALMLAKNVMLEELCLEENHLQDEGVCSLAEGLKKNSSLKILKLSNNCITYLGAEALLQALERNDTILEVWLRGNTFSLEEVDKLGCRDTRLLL
CAAX prenyl protease 2 (Homo sapiens, UniProt Q9Y256), sequence (Q9Y256 whole entry): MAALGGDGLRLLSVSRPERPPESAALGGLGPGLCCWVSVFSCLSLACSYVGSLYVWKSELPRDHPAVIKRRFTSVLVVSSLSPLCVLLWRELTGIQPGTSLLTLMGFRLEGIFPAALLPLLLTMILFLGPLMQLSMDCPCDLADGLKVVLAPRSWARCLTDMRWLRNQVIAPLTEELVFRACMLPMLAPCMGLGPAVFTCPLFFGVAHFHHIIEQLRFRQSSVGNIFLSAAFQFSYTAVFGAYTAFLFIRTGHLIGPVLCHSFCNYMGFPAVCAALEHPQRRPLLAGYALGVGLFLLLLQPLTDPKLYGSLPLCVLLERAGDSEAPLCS
CAAX prenyl protease 2 (Saccharomyces cerevisiae S288c, UniProt Q03530), sequence (Q03530 whole entry): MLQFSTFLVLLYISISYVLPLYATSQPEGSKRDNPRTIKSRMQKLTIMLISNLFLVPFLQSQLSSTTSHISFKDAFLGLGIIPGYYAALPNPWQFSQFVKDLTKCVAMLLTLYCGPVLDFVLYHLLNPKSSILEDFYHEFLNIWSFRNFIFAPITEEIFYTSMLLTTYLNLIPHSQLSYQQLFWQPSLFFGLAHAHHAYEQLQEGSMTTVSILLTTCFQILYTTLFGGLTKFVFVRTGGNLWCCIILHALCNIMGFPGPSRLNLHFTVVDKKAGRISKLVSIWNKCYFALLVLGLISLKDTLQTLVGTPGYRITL
CAAX prenyl protease 1, sequence (P47154 whole entry): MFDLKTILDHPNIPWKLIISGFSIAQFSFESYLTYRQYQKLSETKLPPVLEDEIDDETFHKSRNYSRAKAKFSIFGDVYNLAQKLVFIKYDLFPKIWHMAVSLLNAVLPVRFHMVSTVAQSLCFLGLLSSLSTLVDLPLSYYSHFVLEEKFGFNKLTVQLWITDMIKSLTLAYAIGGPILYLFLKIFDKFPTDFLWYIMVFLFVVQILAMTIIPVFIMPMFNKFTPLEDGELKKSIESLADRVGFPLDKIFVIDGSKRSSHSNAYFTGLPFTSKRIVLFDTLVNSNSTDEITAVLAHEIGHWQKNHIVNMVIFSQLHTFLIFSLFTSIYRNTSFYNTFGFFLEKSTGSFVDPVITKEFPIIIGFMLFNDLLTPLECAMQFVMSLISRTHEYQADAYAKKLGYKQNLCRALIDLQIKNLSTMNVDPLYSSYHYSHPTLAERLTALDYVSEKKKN
Trypsin, sequence (P00761 whole entry): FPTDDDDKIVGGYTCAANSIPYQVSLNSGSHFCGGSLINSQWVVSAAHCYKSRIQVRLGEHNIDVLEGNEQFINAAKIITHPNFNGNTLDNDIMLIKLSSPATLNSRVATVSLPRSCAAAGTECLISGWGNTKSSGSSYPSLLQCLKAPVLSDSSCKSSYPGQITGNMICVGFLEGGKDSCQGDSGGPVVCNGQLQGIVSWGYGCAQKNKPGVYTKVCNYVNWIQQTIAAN

Nc1nc(N2CCN(C(=O)c3ccco3)CC2)nc2ccccc12
active: AC50 [1] 15.3 µM | AC50 [2] 3.46 µM | AC50 [3] 8.22 µM | AC50 [4] 28.7 µM

CC(=O)c1ccc(Nc2nc3ccccc3nc2NS(=O)(=O)c2cccs2)cc1
active: EC50 [6] 6.47 µM | IC50 [7] 9.59 µM | IC50 [9] 15.6 µM | EC50 [10] 8.18 µM
inactive: IC50 [5] > 20 µM | IC50 [8] > 20 µM
